# Patent publication US7759349B2, “Control of parasites in animals by the use of imidazo[1,2-b]pyridazine derivatives” (Schering-Plough Animal Health Corporation, priority 2003, dated 2010)
# Test system: Haemonchus contortus
# Test: Haemonchus contortus larvacidal assay: NemaTOX H. contortus dose response (larval development, eggs to L3)
# Format: cell-based
# Details: Haemonchus contortus, 144 h; Table 1; concentration required to inhibit development in 99% of the nematode larvae; eggs on agar to L3 stage (6 days); two-fold dilutions, 0.024 to 50 μg/ml; read-out: LD99
# Procedure: Haemonchus Contortus Larvacidal Assay: NemaTOX H.contortus Dose Response (00/0510)
# Effect on larval development is determined in the assay described by Gill et al. (International Journal of Parasitology, 1995, 25, 463-470). Briefly, in this assay nematode eggs were applied to the surface of an agar matrix containing the test compound and then allowed to develop through to the L3, infective stage (6 days)
# The wells for each dilution of every compound (from highest to lowest concentration) were inspected to determine the well number corresponding to the lowest concentration at which development was inhibited in 99% of the nematode larvae present. As the well numbers correspond to a two-fold serial dilution of each compound, a titre (dilution factor) is generated as 2^n-1, where n is the well number. By dividing the highest concentration tested by the titre an LD99 value can be obtained, representing the concentration required to inhibit development in 99% of the nematode larvae present.
# The compounds supplied as solid and viscous liquids were dissolved in DMSO. Twelve serial 1/2 dilutions in DMSO solution were prepared from the stock solution, each of which was then diluted 1/5 with water. Aliquots (10 μl) of each dilution were transferred to the bioassay plates to give a final concentration range of 0.024 to 50 μg/ml.
# In Tables 1, 2 and 3 the Haemonchus contortus LD99 values for compounds in accordance with the present invention are listed, measured in micrograms/mL.
row,Structure (SMILES),IC99
1,"c1cc2c(cc1-c1cn3nc(OCC4CC4)ccc3n1)OCO2 [Compound 43, 2-(3,4-Methylendioxyphenyl)-6-cyclopropylmethoxyimidazo[1,2-b]pyridazine]",0.117 µg/mL

# Same assay, conditions: Table 1; concentration required to inhibit development in 99% of the nematode larvae; eggs on agar to L3 stage (6 days); two-fold dilutions, 0.024 to 50 μg/ml
row,Structure (SMILES),LD99
1,COCCOc1ccc2nc(-c3ccc4c(c3)OCO4)cn2n1 [Compound 25],1.25 micrograms/mL
2,CCCSc1ccc2nc(-c3ccc(OC)c(OC)c3)cn2n1 [Compound 29],1.9 micrograms/mL
3,CCCCOc1ccc2nc(-c3ccc(OCCC)cc3)c(CN(C)C)n2n1 [Compound 59],14 micrograms/mL
4,CSCc1c(-c2ccc(Cl)cc2)nc2ccc(SC)nn12 [Compound 20],>15.0 micrograms/mL
5,CCOc1ccc(-c2cn3nc(SCC(C)C)ccc3n2)cc1 [Compound 49],1.75 micrograms/mL
6,CCCSc1ccc2nc(-c3ccc(OCC)cc3)c(Cl)n2n1 [Compound 48],6 micrograms/mL
7,CCCSc1ccc2nc(-c3ccc(C)cc3)cn2n1 [Compound 7],0.938 micrograms/mL
8,CCCOc1nn2cc(-c3ccc(OCC)cc3)nc2cc1C [Compound 32],0.188 micrograms/mL
9,CCCOc1ccc2nc(-c3ccc(OC)c(Br)c3)c(C)n2n1 [Compound 38],3.75 micrograms/mL
10,CCSc1ccc2nc(-c3ccc(C)cc3)cn2n1 [Compound 12],1.25 micrograms/mL
11,COc1c(-c2ccccc2)nc2ccc(OCc3ccccc3)nn12 [Compound 23],>15.0 micrograms/mL
12,CCOc1ccc(-c2cn3nc(OC(C)C)ccc3n2)cc1 [Compound 51],1.875 micrograms/mL
13,CCCOc1ccc2nc(-c3ccc4c(c3)OCCO4)cn2n1 [Compound 61],0.813 micrograms/mL
14,CCCOc1ccc2nc(-c3ccc(F)cc3F)cn2n1 [Compound 54],0.219 micrograms/mL

# Same assay, conditions: Table 2; concentration required to inhibit development in 99% of the nematode larvae; eggs on agar to L3 stage (6 days); two-fold dilutions, 0.024 to 50 μg/ml
row,Structure (SMILES),LD99
1,COCCOc1ccc(-c2cn3nc(OC(C)C)ccc3n2)cc1 [Compound 112],1.63 micrograms/mL
2,CCSc1ccc2nc(-c3ccc(OCCOC)cc3)cn2n1 [Compound 101],0.3123 micrograms/mL
3,CCOc1ccc2nc(-c3ccc(OCCOC)cc3)cn2n1 [Compound 100],0.406 micrograms/mL
4,COCCOc1ccc(-c2nc3ccc(-c4ccccc4)nn3c2C)cc1 [Compound 85],1.88 micrograms/mL
5,COCCOc1ccc(-c2cn3nc(OCc4ccccc4)ccc3n2)cc1 [Compound 92],0.438 micrograms/mL
6,COCCOc1ccc(-c2nc3ccc(Cl)nn3c2C)cc1 [Compound 87],0.156 micrograms/mL
7,CCCOc1ccc2nc(-c3ccc(OCCOC)c(Br)c3)c(C)n2n1 [Compound 83],0.375 micrograms/mL
8,CCCOc1nn2cc(-c3ccc(OCCOC)cc3)nc2c2ccccc12 [Compound 119],0.344 micrograms/mL
9,COCCOc1ccc(-c2cn3nc(SCC(C)C)ccc3n2)cc1OC [Compound 105],0.406 micrograms/mL
10,COCCOc1ccc(-c2cn3nc(Br)ccc3n2)cc1 [Compound 90],3 micrograms/mL
11,CCCNc1ccc2nc(-c3ccc(OCCOC)cc3)cn2n1 [Compound 71],0.688 micrograms/mL
12,COCCOc1ccc(-c2cn3nc(SC(C)C)ccc3n2)cc1 [Compound 109],0.203 micrograms/mL
13,COCCOc1ccc(-c2cn3nc(N4CCCCC4)ccc3n2)cc1 [Compound 67],1.5 micrograms/mL
14,COCCOc1ccc(-c2nc3ccc(SCC(C)C)nn3c2CN(C)C)cc1 [Compound 114],3.25 micrograms/mL
